Source: patent publication US11034650B2, “Compounds useful for treating a Mannheimia haemolytica or Histophilus somni infection” (Intervet Inc., priority 2016, dated 2021)
Values after ≈ are worked out from the molar mass of the structure shown.

How the values were obtained:
Type in all cases: cell-based
[1] = tested on: Mannheimia haemolytica MH 6357 (M7/2, reference strain, cattle infection strain); test: MIC, broth-microdilution (CLSI VET01-A4), strain MH 6357; settings: Mannheimia haemolytica strain MH 6357, broth-microdilution; unit assumed
Outline: (§1)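 Two-fold serial dilutions of each compound were prepared, bacteria were grown in them, and plates were then inspected visually. No turbidity at the lowest concentration defined the MIC.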

[2] = tested on: Mannheimia haemolytica MH 6374 (ATCC 33396, reference strain); test: MIC, broth-microdilution (CLSI VET01-A4), strain MH 6374; settings: Mannheimia haemolytica strain MH 6374, broth-microdilution; unit assumed
Outline: as §1

[3] = tested on: Mannheimia haemolytica MH 10720 (154, BRD field isolate); test: MIC, broth-microdilution (CLSI VET01-A4), strain MH 10720; settings: Mannheimia haemolytica strain MH 10720, broth-microdilution; unit assumed
Outline: as §1

[4] = tested on: Mannheimia haemolytica MH 12587 (1071, BRD field isolate, macrolide-resistance: erm+, E+); test: MIC, broth-microdilution (CLSI VET01-A4), strain MH 12587; settings: Mannheimia haemolytica strain MH 12587, broth-microdilution; unit assumed
Outline: as §1

[5] = tested on: Mannheimia haemolytica MH 13065 (XB0446-6003.9, BRD field isolate); test: MIC, broth-microdilution (CLSI VET01-A4), strain MH 13065; settings: Mannheimia haemolytica strain MH 13065, broth-microdilution; unit assumed
Outline: as §1

[6] = tested on: Mannheimia haemolytica MH 13093 (XB0472-6014.1, BRD field isolate); test: MIC, broth-microdilution (CLSI VET01-A4), strain MH 13093; settings: Mannheimia haemolytica strain MH 13093, broth-microdilution; unit assumed
Outline: as §1

[7] = tested on: Pasteurella multocida PM 6267 (P 2225 (L386), reference strain, mouse infection strain); test: MIC, broth-microdilution (CLSI VET01-A4), strain PM 6267; settings: Pasteurella multocida strain PM 6267, broth-microdilution; unit assumed
Outline: as §1

[8] = tested on: Pasteurella multocida PM 6391 (ATCC 43137, reference strain); test: MIC, broth-microdilution (CLSI VET01-A4), strain PM 6391; settings: Pasteurella multocida strain PM 6391, broth-microdilution; unit assumed
Procedure: For example, representative compounds were tested against ***, Mannheimia haemolytica and Pasteurella multocida, using the conventional broth-dilution assay.
The Minimum inhibitory concentrations (MIC) of compounds according to the invention for a number of veterinary bacterial pathogens were determined by the broth-microdilution method according to CLSI document VET01-A4.
Microdilution trays containing a doubling dilution series of the test compound were used for the tests. The MIC results were interpreted according to the CLSI documents VET01-S3. The lowest concentration of compound at which no visible growth (i.e. no turbidity) detected by the unaided eye was recorded as the MIC.

[9] = tested on: Pasteurella multocida PM 10775 (080130003051, BRD field isolate); test: MIC, broth-microdilution (CLSI VET01-A4), strain PM 10775; settings: Pasteurella multocida strain PM 10775, broth-microdilution; unit assumed
Outline: as §1

[10] = tested on: Pasteurella multocida PM 12080 (IV102277-0093, BRD field isolate); test: MIC, broth-microdilution (CLSI VET01-A4), strain PM 12080; settings: Pasteurella multocida strain PM 12080, broth-microdilution; unit assumed
Outline: as §1

Compound | MIC MH 6357 [1] | MIC MH 6374 [2] | MIC MH 10720 [3] | MIC MH 12587 [4] | MIC MH 13065 [5] | MIC MH 13093 [6] | MIC PM 6267 [7] | MIC PM 6391 [8] | MIC PM 10775 [9] | MIC PM 12080 [10]
COCCNCc1ccc(C#Cc2ccc(C(=O)N[C@H](C(=O)NO)C(C)(C)O)cc2)s1 [C.292] | 0.4 µg/mL (≈ 0.898 µM) | 0.8 µg/mL (≈ 1.8 µM) | ≤ 0.1 µg/mL | 1.6 µg/mL (≈ 3.59 µM) | 0.8 µg/mL (≈ 1.8 µM) | 1.6 µg/mL (≈ 3.59 µM) | 1.6 µg/mL (≈ 3.59 µM) | 0.8 µg/mL (≈ 1.8 µM) | ≤ 0.1 µg/mL | 0.4 µg/mL (≈ 0.898 µM)
CC(C)([C@H](NC(=O)c1ccc(C#Cc2ccc(CNC3CC3)s2)cc1)C(=O)NO)S(C)(=O)=O [C.311] | 0.2 µg/mL (≈ 0.408 µM) | ≤ 0.1 µg/mL | ≤ 0.1 µg/mL | 0.4 µg/mL (≈ 0.817 µM) | ≤ 0.1 µg/mL | 0.4 µg/mL (≈ 0.817 µM) | 0.4 µg/mL (≈ 0.817 µM) | ≤ 0.1 µg/mL | ≤ 0.1 µg/mL | ≤ 0.1 µg/mL
COCCNCc1ccc(C#Cc2ccc(C(=O)N[C@H](C(=O)NO)C(C)(C)S(C)(=O)=O)cc2)s1 [C.313] | 0.4 µg/mL (≈ 0.788 µM) | 1.6 µg/mL (≈ 3.15 µM) | ≤ 0.1 µg/mL | 1.6 µg/mL (≈ 3.15 µM) | 0.4 µg/mL (≈ 0.788 µM) | 0.8 µg/mL (≈ 1.58 µM) | 0.2 µg/mL (≈ 0.394 µM) | ≤ 0.1 µg/mL | ≤ 0.1 µg/mL | ≤ 0.1 µg/mL
CC(C)([C@H](NC(=O)c1ccc(C#Cc2ccc(CNCc3cccnc3)s2)cc1)C(=O)NO)S(C)(=O)=O [C.319] | 0.2 µg/mL (≈ 0.37 µM) | 0.2 µg/mL (≈ 0.37 µM) | ≤ 0.1 µg/mL | 0.8 µg/mL (≈ 1.48 µM) | 0.4 µg/mL (≈ 0.74 µM) | 0.4 µg/mL (≈ 0.74 µM) | 0.2 µg/mL (≈ 0.37 µM) | ≤ 0.1 µg/mL | ≤ 0.1 µg/mL | ≤ 0.1 µg/mL
CC(C)(C)CNCc1ccc(C#Cc2ccc(C(=O)N[C@@H](CO)C(=O)NO)cc2)cc1 [Compound 136] | 3.1 µg/mL (≈ 7.32 µM) | 12.5 µg/mL (≈ 29.5 µM) | 1.6 µg/mL (≈ 3.78 µM) | 25 µg/mL (≈ 59 µM) | 12.5 µg/mL (≈ 29.5 µM) | 25 µg/mL (≈ 59 µM) | 0.4 µg/mL (≈ 0.944 µM) | 0.8 µg/mL (≈ 1.89 µM) | ≤ 0.1 µg/mL | 0.8 µg/mL (≈ 1.89 µM)
CC[C@H](C)[C@H](NC(=O)c1ccc(C#Cc2ccc(CNC(C)C)cc2)cc1)C(=O)NO [Compound 141] | 6.3 µg/mL (≈ 14.9 µM) | 12.5 µg/mL (≈ 29.7 µM) | 1.6 µg/mL (≈ 3.8 µM) | 12.5 µg/mL (≈ 29.7 µM) | 6.3 µg/mL (≈ 14.9 µM) | 12.5 µg/mL (≈ 29.7 µM) | 1.6 µg/mL (≈ 3.8 µM) | 3.1 µg/mL (≈ 7.35 µM) | 0.2 µg/mL (≈ 0.474 µM) | 3.1 µg/mL (≈ 7.35 µM)
CC[C@H](C)[C@H](NC(=O)c1ccc(C#Cc2ccc(CN3CCS(=O)(=O)CC3)cc2)cc1)C(=O)NO [Compound 142] | 6.3 µg/mL (≈ 12.7 µM) | 12.5 µg/mL (≈ 25.1 µM) | 3.1 µg/mL (≈ 6.23 µM) | 25 µg/mL (≈ 50.2 µM) | 12.5 µg/mL (≈ 25.1 µM) | 12.5 µg/mL (≈ 25.1 µM) | 0.2 µg/mL (≈ 0.402 µM) | 0.4 µg/mL (≈ 0.804 µM) | ≤ 0.1 µg/mL | 0.4 µg/mL (≈ 0.804 µM)
CC[C@H](C)[C@H](NC(=O)c1ccc(C#Cc2ccc(CNC)cc2)cc1)C(=O)NO [Compound 194] | 6.3 µg/mL (≈ 16 µM) | 25 µg/mL (≈ 63.5 µM) |  | 25 µg/mL (≈ 63.5 µM) | 6.3 µg/mL (≈ 16 µM) | 12.5 µg/mL (≈ 31.8 µM) | 0.4 µg/mL (≈ 1.02 µM) | 1.6 µg/mL (≈ 4.07 µM) | ≤ 0.1 µg/mL | 1.6 µg/mL (≈ 4.07 µM)
COCCN(C)Cc1ccc(C#Cc2ccc(C(=O)N[C@H](C(=O)NO)C(C)C)cc2)cc1 [Compound 203] | 1.6 µg/mL (≈ 3.66 µM) | 1.6 µg/mL (≈ 3.66 µM) | 0.2 µg/mL (≈ 0.457 µM) | 3.1 µg/mL (≈ 7.09 µM) | 0.8 µg/mL (≈ 1.83 µM) | 1.6 µg/mL (≈ 3.66 µM) | ≤ 0.1 µg/mL |  | ≤ 0.1 µg/mL | ≤ 0.1 µg/mL
CC(C)[C@H](NC(=O)c1ccc(C#Cc2ccc(CNCC#N)cc2)cc1)C(=O)NO [Compound 204] | 0.4 µg/mL (≈ 0.989 µM) | 0.4 µg/mL (≈ 0.989 µM) | ≤ 0.1 µg/mL | 0.8 µg/mL (≈ 1.98 µM) | 0.2 µg/mL (≈ 0.494 µM) | 0.4 µg/mL (≈ 0.989 µM) | ≤ 0.1 µg/mL |  | ≤ 0.1 µg/mL | ≤ 0.1 µg/mL
CC(C)(O)[C@H](NC(=O)c1ccc(C#Cc2ccc(CN3CCCC3)cc2)cc1)C(=O)NO [Compound 225] | 12.5 µg/mL (≈ 28.7 µM) | 6.3 µg/mL (≈ 14.5 µM) | 1.6 µg/mL (≈ 3.67 µM) | 12.5 µg/mL (≈ 28.7 µM) | 12.5 µg/mL (≈ 28.7 µM) | 12.5 µg/mL (≈ 28.7 µM) | ≤ 0.1 µg/mL | 0.8 µg/mL (≈ 1.84 µM) |  | 0.8 µg/mL (≈ 1.84 µM)
